The source made the active and inactive calls. The calls are words filed in the database; no cut-off is given here. Peptide text beside a SMILES is read from it.
Columns and labels:
Escherichia coli [1] = test: Synergistic antibacterial activity against wild type Escherichia coli BW25113 assessed as erythromycin MIC at 8 microg/ml incubated for 18 hrs by broth dilution assay; type: functional; settings: dose 8 µg/ml
Escherichia coli [2] = test: Synergistic antibacterial activity against wild type Escherichia coli BW25113 assessed as erythromycin MIC at 16 microg/ml incubated for 18 hrs by broth dilution assay; type: functional; settings: dose 16 µg/ml
Escherichia coli [3] = test: Synergistic antibacterial activity against wild type Escherichia coli BW25113 assessed as erythromycin MIC at 32 microg/ml incubated for 18 hrs by broth dilution assay; type: functional; settings: dose 32 µg/ml
Escherichia coli [4] = test: Synergistic antibacterial activity against wild type Escherichia coli BW25113 assessed as erythromycin MIC at 64 microg/ml incubated for 18 hrs by broth dilution assay; type: functional; settings: dose 64 µg/ml
Escherichia coli [5] = test: Synergistic antibacterial activity against wild type Escherichia coli BW25113 assessed as erythromycin MIC at 128 microg/ml incubated for 18 hrs by broth dilution assay; type: functional; settings: dose 128 µg/ml
Escherichia coli [6] = test: Synergistic antibacterial activity against wild type Escherichia coli BW25113 assessed as levofloxacin MIC at 8 microg/ml incubated for 18 hrs by broth dilution assay; type: functional; settings: dose 8 µg/ml
Escherichia coli [7] = test: Synergistic antibacterial activity against wild type Escherichia coli BW25113 assessed as levofloxacin MIC at 16 microg/ml incubated for 18 hrs by broth dilution assay; type: functional; settings: dose 16 µg/ml
Escherichia coli [8] = test: Synergistic antibacterial activity against wild type Escherichia coli BW25113 assessed as levofloxacin MIC at 32 microg/ml incubated for 18 hrs by broth dilution assay; type: functional; settings: dose 32 µg/ml
Escherichia coli [9] = test: Synergistic antibacterial activity against wild type Escherichia coli BW25113 assessed as levofloxacin MIC at 64 microg/ml incubated for 18 hrs by broth dilution assay; type: functional; settings: dose 64 µg/ml
Escherichia coli [10] = test: Synergistic antibacterial activity against wild type Escherichia coli BW25113 assessed as levofloxacin MIC at 128 microg/ml incubated for 18 hrs by broth dilution assay; type: functional; settings: dose 128 µg/ml
Escherichia coli [11] = test: Synergistic antibacterial activity against wild type Escherichia coli BW25113 assessed as minocycline MIC at 8 microg/ml incubated for 18 hrs by broth dilution assay; type: functional; settings: dose 8 µg/ml
Escherichia coli [12] = test: Synergistic antibacterial activity against wild type Escherichia coli BW25113 assessed as minocycline MIC at 16 microg/ml incubated for 18 hrs by broth dilution assay; type: functional; settings: dose 16 µg/ml
Escherichia coli [13] = test: Synergistic antibacterial activity against wild type Escherichia coli BW25113 assessed as minocycline MIC at 32 microg/ml incubated for 18 hrs by broth dilution assay; type: functional; settings: dose 32 µg/ml
Escherichia coli [14] = test: Synergistic antibacterial activity against wild type Escherichia coli BW25113 assessed as minocycline MIC at 64 microg/ml incubated for 18 hrs by broth dilution assay; type: functional; settings: dose 64 µg/ml
Escherichia coli [15] = test: Synergistic antibacterial activity against wild type Escherichia coli BW25113 assessed as minocycline MIC at 128 microg/ml incubated for 18 hrs by broth dilution assay; type: functional; settings: dose 128 µg/ml
Escherichia coli [16] = test: Synergistic antibacterial activity against wild type Escherichia coli BW25113 assessed as erythromycin MIC at 8 microg/ml incubated for 18 hrs in presence of colistin by broth dilution assay; type: functional; settings: dose 8 µg/ml
Escherichia coli [17] = test: Synergistic antibacterial activity against wild type Escherichia coli BW25113 assessed as erythromycin MIC at 16 microg/ml incubated for 18 hrs in presence of colistin by broth dilution assay; type: functional; settings: dose 16 µg/ml
Escherichia coli [18] = test: Synergistic antibacterial activity against wild type Escherichia coli BW25113 assessed as erythromycin MIC at 32 microg/ml incubated for 18 hrs in presence of colistin by broth dilution assay; type: functional; settings: dose 32 µg/ml
Escherichia coli [19] = test: Synergistic antibacterial activity against wild type Escherichia coli BW25113 assessed as erythromycin MIC at 64 microg/ml incubated for 18 hrs in presence of colistin by broth dilution assay; type: functional; settings: dose 64 µg/ml
Escherichia coli [20] = test: Synergistic antibacterial activity against wild type Escherichia coli BW25113 assessed as levofloxacin MIC at 8 microg/ml incubated for 18 hrs in presence of colistin by broth dilution assay; type: functional; settings: dose 8 µg/ml
Escherichia coli [21] = test: Synergistic antibacterial activity against wild type Escherichia coli BW25113 assessed as levofloxacin MIC at 16 microg/ml incubated for 18 hrs in presence of colistin by broth dilution assay; type: functional; settings: dose 16 µg/ml
Escherichia coli [22] = test: Synergistic antibacterial activity against wild type Escherichia coli BW25113 assessed as levofloxacin MIC at 32 microg/ml incubated for 18 hrs in presence of colistin by broth dilution assay; type: functional; settings: dose 32 µg/ml
Escherichia coli [23] = test: Synergistic antibacterial activity against wild type Escherichia coli BW25113 assessed as levofloxacin MIC at 64 microg/ml incubated for 18 hrs in presence of colistin by broth dilution assay; type: functional; settings: dose 64 µg/ml
Escherichia coli [24] = test: Synergistic antibacterial activity against wild type Escherichia coli BW25113 assessed as minocycline MIC at 8 microg/ml incubated for 18 hrs in presence of colistin by broth dilution assay; type: functional; settings: dose 8 µg/ml
Escherichia coli [25] = test: Synergistic antibacterial activity against wild type Escherichia coli BW25113 assessed as minocycline MIC at 16 microg/ml incubated for 18 hrs in presence of colistin by broth dilution assay; type: functional; settings: dose 16 µg/ml
Escherichia coli [26] = test: Synergistic antibacterial activity against wild type Escherichia coli BW25113 assessed as minocycline MIC at 32 microg/ml incubated for 18 hrs in presence of colistin by broth dilution assay; type: functional; settings: dose 32 µg/ml
Escherichia coli [27] = test: Synergistic antibacterial activity against wild type Escherichia coli BW25113 assessed as minocycline MIC at 64 microg/ml incubated for 18 hrs in presence of colistin by broth dilution assay; type: functional; settings: dose 64 µg/ml
Escherichia coli [28] = test: Synergistic antibacterial activity against wild type Escherichia coli BW25113 assessed as minocycline MIC at 4 microg/ml incubated for 18 hrs in presence of colistin by broth dilution assay; type: functional; settings: dose 4 µg/ml
Escherichia coli [29] = test: Synergistic antibacterial activity against wild type Escherichia coli BW25113 assessed as fold decrease in levofloxacin MIC at 8 microg/ml incubated for 18 hrs by checkboard based microplate reader analysis; type: functional; settings: dose 8 µg/ml
[30] = target: T1, Multidrug efflux pump subunit AcrB (Escherichia coli (strain K12)) (UniProt P31224); test: Inhibition of Escherichia coli BW25113 AcrB assessed as inhibition of nile red efflux at 50 uM incubated for 15 mins
T1 sequence (whole entry): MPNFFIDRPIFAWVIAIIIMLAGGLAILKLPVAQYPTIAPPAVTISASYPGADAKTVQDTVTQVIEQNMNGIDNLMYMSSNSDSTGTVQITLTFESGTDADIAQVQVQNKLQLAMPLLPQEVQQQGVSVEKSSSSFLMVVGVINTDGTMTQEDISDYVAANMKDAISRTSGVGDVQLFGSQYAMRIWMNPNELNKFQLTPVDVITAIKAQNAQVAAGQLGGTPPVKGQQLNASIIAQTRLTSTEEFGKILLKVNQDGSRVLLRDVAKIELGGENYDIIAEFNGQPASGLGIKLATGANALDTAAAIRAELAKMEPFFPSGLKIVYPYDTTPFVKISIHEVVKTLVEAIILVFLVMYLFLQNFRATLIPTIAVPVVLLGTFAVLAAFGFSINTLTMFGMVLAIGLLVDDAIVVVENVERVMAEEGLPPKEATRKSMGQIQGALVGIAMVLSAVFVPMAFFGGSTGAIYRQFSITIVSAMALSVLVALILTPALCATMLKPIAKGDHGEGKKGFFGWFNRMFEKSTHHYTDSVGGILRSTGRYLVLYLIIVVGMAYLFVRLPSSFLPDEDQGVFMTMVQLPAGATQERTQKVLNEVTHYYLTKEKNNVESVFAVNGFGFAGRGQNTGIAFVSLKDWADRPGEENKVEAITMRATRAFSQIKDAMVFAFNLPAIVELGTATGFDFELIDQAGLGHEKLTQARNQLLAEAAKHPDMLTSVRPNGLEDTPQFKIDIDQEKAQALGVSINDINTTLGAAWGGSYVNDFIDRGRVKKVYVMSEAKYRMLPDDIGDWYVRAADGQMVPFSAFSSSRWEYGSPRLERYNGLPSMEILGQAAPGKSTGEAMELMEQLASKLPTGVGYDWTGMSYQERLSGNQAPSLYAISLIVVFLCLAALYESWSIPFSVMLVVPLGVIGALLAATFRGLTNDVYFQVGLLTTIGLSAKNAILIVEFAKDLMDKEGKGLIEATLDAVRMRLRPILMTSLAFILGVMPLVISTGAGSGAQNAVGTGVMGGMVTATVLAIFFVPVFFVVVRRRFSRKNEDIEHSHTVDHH

Cell membrane = test: Induction of inner membrane permeabilization in Escherichia coli BW25113 assessed as increase in fluorescence intensity at 64 microg/ml incubated for 10 mins by DiOC2 dye based fluorimeter analysis; type: subcellular; settings: dose 64.0 µg/ml
[31] = Hemolytic activity in mouse RBC assessed as hemolysis at 4 to 256 microg/ml incubated for 1 hr by microplate reader analysis; type: toxicity, cell-based, Erythrocyte; settings: mouse red blood cells (erythrocytes), at 4 to 256 µg/mL, dose 4-256 µg/ml, read-out: Activity
[32] = Toxicity in Caenorhabditis elegans assessed as survival rate at 128 microg/ml measured after 72 hrs by light microscopic analysis; settings: at 128 µg/mL
Escherichia coli [33] = test: Synergistic antibacterial activity against wild type Escherichia coli BW25113 assessed as erythromycin MIC at 128 microg/ml incubated for 18 hrs in presence of colistin by broth dilution assay; type: functional; settings: dose 128 µg/ml
Escherichia coli [34] = test: Synergistic antibacterial activity against wild type Escherichia coli BW25113 assessed as levofloxacin MIC at 128 microg/ml incubated for 18 hrs in presence of colistin by broth dilution assay; type: functional; settings: dose 128 µg/ml
Escherichia coli [35] = test: Synergistic antibacterial activity against wild type Escherichia coli BW25113 assessed as minocycline MIC at 128 microg/ml incubated for 18 hrs in presence of colistin by broth dilution assay; type: functional; settings: dose 128 µg/ml
Escherichia coli [36] = test: Synergistic antibacterial activity against wild type Escherichia coli BW25113 assessed as fold decrease in erythromycin MIC at 128 microg/ml incubated for 18 hrs by checkboard based microplate reader analysis; type: functional; settings: dose 128 µg/ml

SMILES	MIC (Escherichia coli [1])	MIC (Escherichia coli [2])	MIC (Escherichia coli [3])	MIC (Escherichia coli [4])	MIC (Escherichia coli [5])	MIC (Escherichia coli [6])	MIC (Escherichia coli [7])	MIC (Escherichia coli [8])	MIC (Escherichia coli [9])	MIC (Escherichia coli [10])	MIC (Escherichia coli [11])	MIC (Escherichia coli [12])	MIC (Escherichia coli [13])	MIC (Escherichia coli [14])	MIC (Escherichia coli [15])	MIC (Escherichia coli [16])	MIC (Escherichia coli [17])	MIC (Escherichia coli [18])	MIC (Escherichia coli [19])	survival at 72 h, 128 microg/ml [32]	other results
N=C(N)NCCC[C@H](NC(=O)[C@@H](N)Cc1ccccc1)C(=O)Nc1ccc2ccccc2c1 [PABETAN] (HELM PEPTIDE1{F.R.[c1ccc2cc(N[*:1])ccc2c1]}$$$$V2.0)	16 µg/mL	8 µg/mL	4 µg/mL	4 µg/mL	2 µg/mL	0.016 µg/mL	0.008 µg/mL	0.008 µg/mL	0.008 µg/mL	0.001 µg/mL	0.5 µg/mL	0.5 µg/mL	0.5 µg/mL	0.5 µg/mL	0.25 µg/mL						
CC1(C)CCc2c(C(=O)N3CCOCC3)cc3c(OCCCSc4ccc(N)cc4)cccc3c2O1	64 µg/mL	64 µg/mL	64 µg/mL	64 µg/mL	64 µg/mL	0.008 µg/mL	0.008 µg/mL	0.008 µg/mL	0.008 µg/mL	0.008 µg/mL		1 µg/mL	1 µg/mL	1 µg/mL	1 µg/mL	8 µg/mL	8 µg/mL	8 µg/mL	8 µg/mL	90%	MIC (Escherichia coli [20]): 0.032 µg/mL; MIC (Escherichia coli [21]): 0.016 µg/mL; MIC (Escherichia coli [22]): 0.016 µg/mL; MIC (Escherichia coli [23]): 0.008 µg/mL; MIC (Escherichia coli [24]): 1 µg/mL; MIC (Escherichia coli [25]): 1 µg/mL; MIC (Escherichia coli [26]): 1 µg/mL; MIC (Escherichia coli [27]): 0.5 µg/mL; MIC (Escherichia coli [28]): 1 µg/mL; fold change (FC) (Escherichia coli [29]): 4; inhibition [30]: Active; Activity (Cell membrane): inactive; hemolysis at 1 h [31]: < 5%
CC1(C)CCc2c(C(=O)N3CCOCC3)cc3c(OCCOc4ccc([N+](=O)[O-])cc4)cccc3c2O1	64 µg/mL	64 µg/mL	64 µg/mL	32 µg/mL	16 µg/mL	0.032 µg/mL	0.032 µg/mL	0.032 µg/mL	0.032 µg/mL	0.032 µg/mL	2 µg/mL	2 µg/mL	2 µg/mL	2 µg/mL	2 µg/mL	8 µg/mL	8 µg/mL	8 µg/mL	8 µg/mL	90%	MIC (Escherichia coli [33]): 4 µg/mL; MIC (Escherichia coli [20]): 0.032 µg/mL; MIC (Escherichia coli [21]): 0.032 µg/mL; MIC (Escherichia coli [22]): 0.032 µg/mL; MIC (Escherichia coli [23]): 0.032 µg/mL; MIC (Escherichia coli [34]): 0.032 µg/mL; MIC (Escherichia coli [24]): 1 µg/mL; MIC (Escherichia coli [25]): 1 µg/mL; MIC (Escherichia coli [26]): 1 µg/mL; MIC (Escherichia coli [27]): 0.5 µg/mL; MIC (Escherichia coli [35]): 0.5 µg/mL; fold change (FC) (Escherichia coli [36]): 4; Activity (Cell membrane): inactive; hemolysis at 1 h [31]: < 5%
CC1(C)S[C@@H]2[C@H](NC(=O)[C@H](N)c3ccccc3)C(=O)N2[C@H]1C(=O)O [AMPICILLIN]																				99%	
